# Results reported in patent publication US8192962B2, “Processes for detecting toxic substances” (Daikin Industries, Ltd., priority 2001, dated 2012).
# Key:
# DNA repair protein genes = test: DNA chip mRNA expression in yeast, DNA repair protein genes (Table 3); type: cell-based, Saccharomyces cerevisiae S288C; conditions: incubated two hours, concentrations as in the 1st table
# In short: (§1)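 Whole-genome yeast DNA chip hybridization (65° C., >12 h) of Cy-labeled cDNA from S288C cells exposed 2 h at 25° C. to a sub-lethal toxicant dose in YPD; value is intensity relative to chemical-free control.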
# [1] = system: Detoxification protein genes; test: DNA chip mRNA expression in yeast, detoxification protein genes (Table 8); type: cell-based, Saccharomyces cerevisiae S288C
# In short: as §1
smiles,measurement,setting,value
"C[S+](C)[O-] [(15), dimethylsulfoxide]",The level of expressed mRNA in the presence of chemical substance/The level of expressed mRNA in the absence of chemical substance,DNA repair protein genes; yeast gene YBR272C,0.5
same,The level of expressed mRNA in the presence of chemical substance/The level of expressed mRNA in the absence of chemical substance,DNA repair protein genes; yeast gene YCR014C,0.7
same,The level of expressed mRNA in the presence of chemical substance/The level of expressed mRNA in the absence of chemical substance,DNA repair protein genes; yeast gene YDL059C,0.7
same,The level of expressed mRNA in the presence of chemical substance/The level of expressed mRNA in the absence of chemical substance,DNA repair protein genes; yeast gene YDR054C,1.6
same,The level of expressed mRNA in the presence of chemical substance/The level of expressed mRNA in the absence of chemical substance,DNA repair protein genes; yeast gene YEL037C,1.6
same,The level of expressed mRNA in the presence of chemical substance/The level of expressed mRNA in the absence of chemical substance,DNA repair protein genes; yeast gene YGL091C,0.7
same,The level of expressed mRNA in the presence of chemical substance/The level of expressed mRNA in the absence of chemical substance,DNA repair protein genes; yeast gene YGL249W,0.7
same,The level of expressed mRNA in the presence of chemical substance/The level of expressed mRNA in the absence of chemical substance,DNA repair protein genes; yeast gene YGR180C,1.3
same,The level of expressed mRNA in the presence of chemical substance/The level of expressed mRNA in the absence of chemical substance,DNA repair protein genes; yeast gene YIL072W,1.4
same,The level of expressed mRNA in the presence of chemical substance/The level of expressed mRNA in the absence of chemical substance,DNA repair protein genes; yeast gene YIL143C,1.3
same,The level of expressed mRNA in the presence of chemical substance/The level of expressed mRNA in the absence of chemical substance,DNA repair protein genes; yeast gene YNL250W,1.3
same,The level of expressed mRNA in the presence of chemical substance/The level of expressed mRNA in the absence of chemical substance,DNA repair protein genes; yeast gene YNL261W,0.7
same,The level of expressed mRNA in the presence of chemical substance/The level of expressed mRNA in the absence of chemical substance,DNA repair protein genes; yeast gene YPL164C,1.3
same,The level of expressed mRNA in the presence of chemical substance/The level of expressed mRNA in the absence of chemical substance,[1]; yeast gene YBL064C,1.3
same,The level of expressed mRNA in the presence of chemical substance/The level of expressed mRNA in the absence of chemical substance,[1]; yeast gene YBR008C,0.8
same,The level of expressed mRNA in the presence of chemical substance/The level of expressed mRNA in the absence of chemical substance,[1]; yeast gene YBR244W,0.4
same,The level of expressed mRNA in the presence of chemical substance/The level of expressed mRNA in the absence of chemical substance,[1]; yeast gene YBR293W,3.1
same,The level of expressed mRNA in the presence of chemical substance/The level of expressed mRNA in the absence of chemical substance,[1]; yeast gene YCR083W,1.0
same,The level of expressed mRNA in the presence of chemical substance/The level of expressed mRNA in the absence of chemical substance,[1]; yeast gene YDL100C,1.0
same,The level of expressed mRNA in the presence of chemical substance/The level of expressed mRNA in the absence of chemical substance,[1]; yeast gene YDR256C,1.0
same,The level of expressed mRNA in the presence of chemical substance/The level of expressed mRNA in the absence of chemical substance,[1]; yeast gene YDR453C,2.3
same,The level of expressed mRNA in the presence of chemical substance/The level of expressed mRNA in the absence of chemical substance,[1]; yeast gene YDR513W,1.3
same,The level of expressed mRNA in the presence of chemical substance/The level of expressed mRNA in the absence of chemical substance,[1]; yeast gene YDR538W,1.0
same,The level of expressed mRNA in the presence of chemical substance/The level of expressed mRNA in the absence of chemical substance,[1]; yeast gene YER185W,1.7
same,The level of expressed mRNA in the presence of chemical substance/The level of expressed mRNA in the absence of chemical substance,[1]; yeast gene YGL013C,1.0
same,The level of expressed mRNA in the presence of chemical substance/The level of expressed mRNA in the absence of chemical substance,[1]; yeast gene YGR088W,0.7
same,The level of expressed mRNA in the presence of chemical substance/The level of expressed mRNA in the absence of chemical substance,[1]; yeast gene YGR138C,4.5
same,The level of expressed mRNA in the presence of chemical substance/The level of expressed mRNA in the absence of chemical substance,[1]; yeast gene YGR197C,1.0
same,The level of expressed mRNA in the presence of chemical substance/The level of expressed mRNA in the absence of chemical substance,[1]; yeast gene YGR209C,1.3
same,The level of expressed mRNA in the presence of chemical substance/The level of expressed mRNA in the absence of chemical substance,[1]; yeast gene YHL040C,3.4
same,The level of expressed mRNA in the presence of chemical substance/The level of expressed mRNA in the absence of chemical substance,[1]; yeast gene YHR008C,1.7
same,The level of expressed mRNA in the presence of chemical substance/The level of expressed mRNA in the absence of chemical substance,[1]; yeast gene YHR048W,0.9
same,The level of expressed mRNA in the presence of chemical substance/The level of expressed mRNA in the absence of chemical substance,[1]; yeast gene YHR053C,0.3
same,The level of expressed mRNA in the presence of chemical substance/The level of expressed mRNA in the absence of chemical substance,[1]; yeast gene YHR055C,0.5
same,The level of expressed mRNA in the presence of chemical substance/The level of expressed mRNA in the absence of chemical substance,[1]; yeast gene YJL101C,0.5
same,The level of expressed mRNA in the presence of chemical substance/The level of expressed mRNA in the absence of chemical substance,[1]; yeast gene YJR104C,1.3
same,The level of expressed mRNA in the presence of chemical substance/The level of expressed mRNA in the absence of chemical substance,[1]; yeast gene YKL026C,0.8
same,The level of expressed mRNA in the presence of chemical substance/The level of expressed mRNA in the absence of chemical substance,[1]; yeast gene YKL064W,0.7
same,The level of expressed mRNA in the presence of chemical substance/The level of expressed mRNA in the absence of chemical substance,[1]; yeast gene YKR066C,0.6
same,The level of expressed mRNA in the presence of chemical substance/The level of expressed mRNA in the absence of chemical substance,[1]; yeast gene YLL028W,3.1
same,The level of expressed mRNA in the presence of chemical substance/The level of expressed mRNA in the absence of chemical substance,[1]; yeast gene YLR043C,0.5
same,The level of expressed mRNA in the presence of chemical substance/The level of expressed mRNA in the absence of chemical substance,[1]; yeast gene YLR046C,0.8
same,The level of expressed mRNA in the presence of chemical substance/The level of expressed mRNA in the absence of chemical substance,[1]; yeast gene YML116W,1.9
same,The level of expressed mRNA in the presence of chemical substance/The level of expressed mRNA in the absence of chemical substance,[1]; yeast gene YMR038C,0.6
same,The level of expressed mRNA in the presence of chemical substance/The level of expressed mRNA in the absence of chemical substance,[1]; yeast gene YNL241C,7.0
same,The level of expressed mRNA in the presence of chemical substance/The level of expressed mRNA in the absence of chemical substance,[1]; yeast gene YNL259C,0.7
same,The level of expressed mRNA in the presence of chemical substance/The level of expressed mRNA in the absence of chemical substance,[1]; yeast gene YOL158C,0.9
same,The level of expressed mRNA in the presence of chemical substance/The level of expressed mRNA in the absence of chemical substance,[1]; yeast gene YOR153W,3.6
same,The level of expressed mRNA in the presence of chemical substance/The level of expressed mRNA in the absence of chemical substance,[1]; yeast gene YOR251C,0.6
same,The level of expressed mRNA in the presence of chemical substance/The level of expressed mRNA in the absence of chemical substance,[1]; yeast gene YOR273C,0.8
same,The level of expressed mRNA in the presence of chemical substance/The level of expressed mRNA in the absence of chemical substance,[1]; yeast gene YPR200C,0.7
